Experimental data published in patent publication US10907219B2, “Compositions and methods for controlling cellular function” (STC.UNM, priority 2014, dated 2021).
Entries after “also recorded” stand apart in the source; their conditions may differ. Each block holds one molecule with its values, some of them ahead of it.

Tests used:
Assay type in all cases: cell-based
[1] = test system: HEK 293T inducible EGFP reporter cell line (VP-PYL and GAL4DBD-ABI); assay: Light-induced EGFP expression
Text: To confirm that the photo-regenerated ABA is biologically functional, we determined whether it can be employed to induce PYL-ABI dimerization in an ABA-inducible transcriptional activation system using an established HEK 293T inducible EGFP reporter cell line. The cell line was created with both the ABA-responsive split transcriptional activator DNA fragment (VP-PYL and GAL4DBD-ABI linked by IRES; Liang et al., 2011, Sci. Signal. 4, rs2) and an inducible EGFP DNA fragment (with 5×UAS and the IL-2 minimal promoter) inserted into the genome (FIG. 21A). EGFP expression was activated through the recruitment of VP16AD to the EGFP gene in the presence of ABA. 24 hours after plating the cells, 10 μM of ABA, pre-irradiated ABA-DMNB products, or non-irradiated ABA-DMNB were separately added to the cells and incubated for an additional eight hours. EGFP expression was then determined using a fluorescence microscopy.
Cell culture and transfection: CHO cells and HEK 293T EGFP reporter cells (provided by Dr. Gerald R. Crabtree) were cultured in Dulbecco's modified Eagle's medium (DMEM; GIBCO, Life Technologies, Carlsbad, Calif.) with 10% FBS (Atlanta Biologicals, Inc., Norcross, Ga.), 1×GlutaMAX (GIBCO, Life Technologies, Carlsbad, Calif.), and 1× penicillin/streptomycin (Pen/Strep; GIBCO, Life Technologies, Carlsbad, Calif.). 15,000-50,000 ells were plated in a 24-well or 8-well plate for 24 hours before transfection. DNA constructs (0.1 μg-0.5 μg) were added to 50× (v/w) Opti-MEM (GIBCO, Life Technologies, Carlsbad, Calif.), and then 3× (v/w) PEI (Polysciences, Inc., Warrington, Pa.) was mixed with the DNA. The mixture was incubated for 20 minutes at room temperature before adding it to cell cultures. The cells were grown for one day after transfection before experiments were performed.
Photo-irradiation: Irradiation at 365 nm was performed with an Axio Observer (Carl Zeiss AG, Oberkochen, Germany) microscope with an HBO103 W/2 mercury arc lamp (Carl Zeiss AG, Oberkochen, Germany). Irradiation was performed by using a DAPI filter (Carl Zeiss AG, Oberkochen, Germany), set with peak excitation at 365 nm (power density: 23 mW cm^2) and a spectral width of 50 nm. No objective lens was used for whole-well irradiation, which created an area of illumination that nearly completely covered one well of a 24-well plate. Light was transmitted through the bottom of the well of polystyrene plate. Irradiation at 405 nm was performed by using an adjustable focus violet purple laser pointer (LazerPoint SKU 0733579), with an excitation wavelength of 405 nm and 1000 mW intensity positioned 8 cm above the bottom of either a 96-well or 24-well plate and irradiated through the polystyrene lid. […]

[2] = test system: EGFP-PYL and NES-ABI in CHO cells; assay: Light-induced EGFP-PYL nuclear export (fixed cells); settings: for subcellular location of EGFP-PYL: CHO cells; for reversibility of EGFP nuclear exportation: washed with fresh media
Description: The ability to use light to control protein translocation through ABA-DMNB uncaging was evaluated next. Plasmids expressing EGFP-tagged PYL and nuclear export sequence (NES) peptide-linked ABI (FIG. 22A) were transfected into CHO cells. The transfected cells were then either treated or not treated with ABA, ABA-DMNB, or ABA-DMNB and irradiated for 60 seconds. Fluorescence microscopy analysis was used to determine subcellular locations of EGFP fusion proteins. […] Furthermore, the observed nuclear export of EGFP fusion protein can be readily reversed by washing away the uncaged ABA using fresh media. Thus, protein translocation can be induced by light through photo-uncaged ABA and can be readily reversed.
Slide preparation: Cells were grown on glass coverslips in 24-well plates. The coverslips were washed with phosphate-buffered saline (PBS) and fixed with 4% paraformaldehyde (PFA, 300 μL, prepared in PBS) at room temperature for 20 min. The cells were then washed twice with PBS and incubated with 1×DAPI in the dark at the room temperature for 5 min. After a final wash with PBS, the coverslips were mounted on a glass slide with VECTASHIELD (Vector Laboratories, Inc., Burlingame, Calif.) mounting media and allowed to stand for two hours in the dark before imaging.
Fluorescence microscopy imaging: Slides were imaged with an Axio Observer (Carl Zeiss AG, Oberkochen, Germany) microscope or with am LSM 510 Meta confocal microscope (Carl Zeiss AG, Oberkochen, Germany) mounted on an AxioObserver inverted microscope with a 63× oil objective. Images were taken with DAPI and GFP channels.
Statistical analysis of cell population: Cell were categorized as displaying nuclear export of EGFP when the fluorescent intensity of the nucleus was less than 60% of the intensity of the cytoplasm. […] Cells were counted from three separate experiments, with N>50 for each experiment.

[3] = test system: HEK 293T eGFP reporter cells (VP-PYL and GAL4DBD-ABI); assay: H2O2-induced eGFP expression (transcriptional activation)
Text: To determine if the ABA generated from the H2O2-induced cleavage of ABA-HP is biologically active, we tested whether it could induce downstream biological processes. We first investigated H2O2-induced transcriptional activation using an HEK 293T stable cell line, in which enhanced GFP (eGFP) expression occurs only in the presence of functional ABA. The cell line was created with both the ABA-responsive split transcriptional activator DNA fragment (VP-PYL and GAL4DBD-ABI linked by IRES; Liang et al., 2011, Sci. Signal. 4, rs2) and an inducible eGFP DNA fragment (with 5×UAS) inserted into the genome (FIG. 2a).
We tested the response of our system to H2O2 at physiologically relevant concentrations under cell culture conditions. The eGFP reporter cells were treated with no drug, or 10 μM of ABA, ABA-HP, or ABA-HP exposed to H2O2 (1, 5 or 10 eq) for five to 24 hours. The expression of eGFP was monitored at specific time points using a fluorescence microscope. […] Alternatively, for cellular experiments, cell culture media can be exchanged regularly with media containing fresh ABA-HP and thus restrict the build-up of esterase-cleaved ABA.
EGFP expression experiments: HEK 293T (GFP) cells were seeded 24 hours prior to treatment in 24-well plates at 100 K/well. 10 μM ABA-HP was added to the cells 10 minutes prior to the addition of 10 μM ABA and 10, 50, or 100 μM of H2O2. Images were taken for living cells at 5 hours, 7 hours, 10 hours and 24 hours.
An Axio Observer D1 fluorescent microscope (Carl Zeiss AG, Oberkochen, Germany) outfitted with HBO 100 microscopy illumination system (Carl Zeiss AG, Oberkochen, Germany; GFP: excitation 470/40 and emission 525/50) was used to analyze GFP expression and NES localization. A 20× objective was used to analyze GFP expression. A 63× objective was used for NES localization.

[4] = 10 μM, not irradiated, eight hours

SMILES: CC1=CC(=O)CC(C)(C)C1(O)/C=C/C(C)=C\C(=O)O (centres unmarked) [ABA, abscisic acid, reference compound]
- eGFP expression [1, 4]: induced EGFP production
- subcellular location of EGFP-PYL ([2]; not irradiated): exported out of the nucleus; also recorded: markedly decreased intensities of EGFP in the nuclei within 15 minutes
- reversibility of EGFP nuclear exportation ([2]; not irradiated): reversed following three washes (within 30 minutes)
- eGFP expression ([3]; 10 μM, compound alone, after five hours): eGFP expression could be observed after five hours

SMILES: CCN(CC)c1ccc2c(COC(=O)/C=C(C)\C=C\[C@@]3(O)C(C)=CC(=O)CC3(C)C)cc(=O)oc2c1 [ABA-DEACM]
- EGFP-PYL nuclear export ([2]; 10 μM, 405 nm light irradiation, fixed CHO cells): ability to induce EGFP-PYL nuclear export

SMILES: COc1cc(COC(=O)/C=C(C)\C=C\[C@@]2(O)C(C)=CC(=O)CC2(C)C)c([N+](=O)[O-])cc1OC [ABA-DMNB]
- eGFP expression [1, 4]: did not induce EGFP expression
- eGFP expression ([1]; 10 μM, pre-irradiated (pre-photocleaved) products, eight hours): induced EGFP production
- eGFP expression ([1]; irradiated in cell culture, 365 nm): showed EGFP expression
- subcellular location of EGFP-PYL ([2]; 365 nm UV irradiation 60 seconds): exported out of the nucleus; also recorded: markedly decreased intensities of EGFP in the nuclei within 15 minutes
- reversibility of EGFP nuclear exportation ([2]; after UV irradiation): reversed following three washes (within 30 minutes)
- subcellular location of EGFP-PYL ([2]; not irradiated): EGFP distribution throughout the whole cells
- subcellular location of EGFP-PYL ([2]; not irradiated, listed as ABADMNB): distributed throughout the cell

- stability within cells ([3]; 10 μM, no H2O2, inferred from absent eGFP expression): at least 10 hours
SMILES: CC1=CC(=O)CC(C)(C)[C@@]1(O)/C=C/C(C)=C\C(=O)OCc1ccc(B2OC(C)(C)C(C)(C)O2)cc1 [ABA-HP]
- eGFP expression ([3]; 10 μM plus H2O2 (1, 5 or 10 eq), after five hours): eGFP expression could be observed after five hours
- dependence of eGFP expression on H2O2 level ([3]; 10 μM plus different amounts of H2O2): dose-dependent eGFP expression
- eGFP expression ([3]; 10 μM, compound alone, extended incubation 24 hours): eGFP expression was indeed observed
- eGFP expression ([3]; 10 μM, compound alone, no H2O2, within 10 hours): not observed within a 10-hour period
